Patent US10251892B2, “Bicyclic heterocycles as FGFR4 inhibitors” (Incyte Corporation, priority 2015, dated 2019)

Target: FGFR3 enzyme (Homo sapiens (Human), UniProt P22607)
Experiment: FGFR Enzymatic Assay (peptide phosphorylation, FRET), FGFR3
Type: biochemical
Details: IC50 ratio showing FGFR3 selectivity; pre-incubated for 4 hours
Description: The inhibitor potency of the exemplified compounds was measured in an enzyme assay that measures peptide phosphorylation using FRET measurements to detect product formation. Inhibitors were serially diluted in DMSO and a volume of 0.5 μL was transferred to the wells of a 384-well plate.
GraphPad prism3 was used to analyze the data.

Sequence of FGFR3 enzyme (P22607 23-806): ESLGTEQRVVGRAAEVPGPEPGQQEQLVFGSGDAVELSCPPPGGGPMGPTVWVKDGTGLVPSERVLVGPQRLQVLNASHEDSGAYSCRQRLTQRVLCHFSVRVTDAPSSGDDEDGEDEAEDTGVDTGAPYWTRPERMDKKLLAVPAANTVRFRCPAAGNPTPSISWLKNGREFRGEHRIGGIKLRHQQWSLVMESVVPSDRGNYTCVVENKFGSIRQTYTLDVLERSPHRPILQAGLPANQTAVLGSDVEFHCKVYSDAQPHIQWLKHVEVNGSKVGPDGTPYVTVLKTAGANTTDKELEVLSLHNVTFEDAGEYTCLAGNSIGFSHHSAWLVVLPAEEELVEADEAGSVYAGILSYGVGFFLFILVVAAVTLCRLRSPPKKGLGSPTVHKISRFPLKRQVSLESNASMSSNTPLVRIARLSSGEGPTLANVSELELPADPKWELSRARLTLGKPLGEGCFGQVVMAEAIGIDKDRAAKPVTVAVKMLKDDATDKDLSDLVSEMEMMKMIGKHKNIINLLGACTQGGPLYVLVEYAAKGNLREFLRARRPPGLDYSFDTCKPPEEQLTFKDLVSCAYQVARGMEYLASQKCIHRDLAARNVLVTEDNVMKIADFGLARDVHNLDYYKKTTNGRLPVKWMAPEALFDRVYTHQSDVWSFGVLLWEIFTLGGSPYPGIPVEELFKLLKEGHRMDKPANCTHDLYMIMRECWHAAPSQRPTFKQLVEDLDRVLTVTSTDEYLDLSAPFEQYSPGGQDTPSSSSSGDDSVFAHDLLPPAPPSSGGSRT

FGFR1/FGFR3 | FGFR4/FGFR3 | SMILES
>5 | >10 | COc1cc(OC)c(F)c(N2Cc3cnc(-c4cn(C)nc4C)cc3N(Cc3ccccn3)C2=O)c1F [Example 94, 3-(2,6-difluoro-3,5-dimethoxyphenyl)-7-(1,3-dimethyl-1H-pyrazol-4-yl)-1-(pyridin-2-ylmethyl)-3,4-dihydropyrido[4,3-d]pyrimidin-2(1H)-one]
>5 | >10 | COc1cc(OC)c(F)c(N2Cc3cnc(-c4cn(C)nc4C)cc3N(Cc3ccc(F)c(F)c3)C2=O)c1F [Example 73, 3-(2,6-difluoro-3,5-dimethoxyphenyl)-1-(3,4-difluorobenzyl)-7-(1,3-dimethyl-1H-pyrazol-4-yl)-3,4-dihydropyrido[4,3-d]pyrimidin-2(1H)-one]
>5 | >5 | COc1cc(OC)c(F)c(N2Cc3cnc(-c4cn(C)nc4C)cc3N(c3cccc(F)c3)C2=O)c1F [Example 99, 3-(2,6-difluoro-3,5-dimethoxyphenyl)-7-(1,3-dimethyl-1H-pyrazol-4-yl)-1-(3-fluorophenyl)-3,4-dihydropyrido[4,3-d]pyrimidin-2(1H)-one]
>5 | >5 | COc1cc(OC)c(F)c(N2Cc3cnc(-c4cn(C)nc4C)cc3N(Cc3ccc(C#N)nc3)C2=O)c1F [Example 74, 5-((3-(2,6-difluoro-3,5-dimethoxyphenyl)-7-(1,3-dimethyl-1H-pyrazol-4-yl)-2-oxo-3,4-dihydropyrido[4,3-d]pyrimidin-1(2H)-yl)methyl)picolinonitrile]
>5 | >3 | COc1cc(OC)c(F)c(N2Cc3cnc(-c4cn(C)nc4C)cc3N(c3cc(F)cc(C#N)c3)C2=O)c1F [Example 78, 3-(3-(2,6-difluoro-3,5-dimethoxyphenyl)-7-(1,3-dimethyl-1H-pyrazol-4-yl)-2-oxo-3,4-dihydropyrido[4,3-d]pyrimidin-1(2H)-yl)-5-fluorobenzonitrile]
>5 | >3 | COc1cc(OC)c(F)c(N2Cc3cnc(-c4cn(C)nc4C)cc3N(c3ccc4nc(C)oc4c3)C2=O)c1F [Example 75, 3-(2,6-difluoro-3,5-dimethoxyphenyl)-7-(1,3-dimethyl-1H-pyrazol-4-yl)-1-(2-methylbenzo[d]oxazol-6-yl)-3,4-dihydropyrido[4,3-d]pyrimidin-2(1H)-one]
>3 | >5 | COc1cc(OC)c(F)c(N2Cc3cnc(-c4cn(C)nc4C)cc3N(c3ccc4[nH]ncc4c3)C2=O)c1F [Example 134, 3-(2,6-difluoro-3,5-dimethoxyphenyl)-7-(1,3-dimethyl-1H-pyrazol-4-yl)-1-(1H-indazol-5-yl)-3,4-dihydropyrido[4,3-d]pyrimidin-2(1H)-one]
>10 | >10 | COc1ccc(CN2C(=O)N(c3c(F)c(OC)cc(OC)c3F)Cc3cnc(-c4cn(C)nc4C)cc32)cn1 [Example 59, 3-(2,6-difluoro-3,5-dimethoxyphenyl)-7-(1,3-dimethyl-1H-pyrazol-4-yl)-1-((6-methoxypyridin-3-yl)methyl)-3,4-dihydropyrido[4,3-d]pyrimidin-2(1H)-one]
>5 | >10 | COc1cc(OC)c(F)c(N2Cc3cnc(-c4cn(C)nc4C)cc3N(Cc3cc(C)on3)C2=O)c1F [Example 31, 3-(2,6-difluoro-3,5-dimethoxyphenyl)-7-(1,3-dimethyl-1H-pyrazol-4-yl)-1-((5-methylisoxazol-3-yl)methyl)-3,4-dihydropyrido[4,3-d]pyrimidin-2(1H)-one]

The remaining lines, values behind:

SMILES | FGFR1/FGFR3 | FGFR4/FGFR3
CCCNC(=O)c1ccc(-c2cc3c(cn2)CN(c2c(F)c(OC)cc(OC)c2F)C(=O)N3CC)cn1 [Example 179, 5-(3-(2,6-difluoro-3,5-dimethoxyphenyl)-1-ethyl-2-oxo-1,2,3,4-tetrahydropyrido[4,3-d]pyrimidin-7-yl)-N-propylpicolinamide] | >5 | >10
COc1cc(OC)c(F)c(N2Cc3cnc(-c4cn(C)nc4C)cc3N(Cc3csc(C)n3)C2=O)c1F [Example 95, 3-(2,6-difluoro-3,5-dimethoxyphenyl)-7-(1,3-dimethyl-1H-pyrazol-4-yl)-1-((2-methylthiazol-4-yl)methyl)-3,4-dihydropyrido[4,3-d]pyrimidin-2(1H)-one] | >5 | >10
COc1cc(OC)c(F)c(N2Cc3cnc(-c4cnn(CCN5CCOCC5)c4)cc3C3(CC3)C2=O)c1F [Example 157, 2′-(2,6-difluoro-3,5-dimethoxyphenyl)-6′-(1-(2-morpholinoethyl)-1H-pyrazol-4-yl)-1′H-spiro[cyclopropane-1,4′-[2,7]naphthyridin]-3′(2′H)-one] | >5 | >3
COc1cc(OC)c(F)c(N2Cc3cnc(-c4cn(C)nc4C)cc3N(c3ccc(S(C)(=O)=O)cc3)C2=O)c1F [Example 98, 3-(2,6-difluoro-3,5-dimethoxyphenyl)-7-(1,3-dimethyl-1H-pyrazol-4-yl)-1-(4-(methylsulfonyl)phenyl)-3,4-dihydropyrido[4,3-d]pyrimidin-2(1H)-one] | >5 | >10
COc1cc(OC)c(F)c(N2Cc3cnc(-c4cnn(C5CCN(S(C)(=O)=O)C5)c4)cc3C3(CC3)C2=O)c1F (centres unmarked) [Example 147, 2′-(2,6-difluoro-3,5-dimethoxyphenyl)-6′-(1-(1-(methylsulfonyl)pyrrolidin-3-yl)-1H-pyrazol-4-yl)-1′H-spiro[cyclopropane-1,4′-[2,7]naphthyridin]-3′(2′H)-one] | >10 | >3
COc1cc(OC)c(F)c(N2Cc3cnc(-c4cnn(C5(CC#N)CN(C(C)=O)C5)c4)cc3C3(CC3)C2=O)c1F [Example 56, 2-(1-acetyl-3-(4-(2′-(2,6-difluoro-3,5-dimethoxyphenyl)-3′-oxo-2′,3′-dihydro-1′H-spiro[cyclopropane-1,4′-[2,7]naphthyridine]-6′-yl)-1H-pyrazol-1-yl)azetidin-3-yl)acetonitrile] | >5 | >1
COc1cc(OC)c(F)c(N2Cc3cnc(-c4cn(C)nc4C)cc3N(c3ccc(F)c(F)c3)C2=O)c1F [Example 102, 3-(2,6-difluoro-3,5-dimethoxyphenyl)-1-(3,4-difluorophenyl)-7-(1,3-dimethyl-1H-pyrazol-4-yl)-3,4-dihydropyrido[4,3-d]pyrimidin-2(1H)-one] | >3 | >10
CCN1C(=O)N(c2c(F)c(OC)cc(OC)c2F)Cc2cnc(-c3cn(CC)nc3C)cc21 [Example 168, 3-(2,6-difluoro-3,5-dimethoxyphenyl)-1-ethyl-7-(1-ethyl-3-methyl-1H-pyrazol-4-yl)-3,4-dihydropyrido[4,3-d]pyrimidin-2(1H)-one] | >5 | >3
CCN1C(=O)N(c2c(F)c(OC)cc(OC)c2F)Cc2cnc(-c3cn(CCN4CCOCC4)nc3C)cc21 [Example 49, 3-(2,6-difluoro-3,5-dimethoxyphenyl)-1-ethyl-7-(3-methyl-1-(2-morpholinoethyl)-1H-pyrazol-4-yl)-3,4-dihydropyrido[4,3-d]pyrimidin-2(1H)-one] | >5 | >1
COc1cc(OC)c(F)c(N2Cc3cnc(-c4cn(C)nc4C)cc3N(Cc3ccc4c(c3)OCCO4)C2=O)c1F [Example 38, 3-(2,6-difluoro-3,5-dimethoxyphenyl)-1-((2,3-dihydrobenzo[b][1,4]dioxin-6-yl)methyl)-7-(1,3-dimethyl-1H-pyrazol-4-yl)-3,4-dihydropyrido[4,3-d]pyrimidin-2(1H)-one] | >5 | >5
COc1cc(OC)c(F)c(N2Cc3cnc(-c4cnn(CCN5CCC(OC)CC5)c4)cc3C3(CC3)C2=O)c1F [Example 152, 2′-(2,6-difluoro-3,5-dimethoxyphenyl)-6′-(1-(2-(4-methoxypiperidin-1-yl)ethyl)-1H-pyrazol-4-yl)-1′H-spiro[cyclopropane-1,4′-[2,7]naphthyridin]-3′(2′H)-one] | >5 | >3
CCc1cc(CN2C(=O)N(c3c(F)c(OC)cc(OC)c3F)Cc3cnc(-c4cn(C)nc4C)cc32)no1 [Example 64, 3-(2,6-difluoro-3,5-dimethoxyphenyl)-7-(1,3-dimethyl-1H-pyrazol-4-yl)-1-((5-ethylisoxazol-3-yl)methyl)-3,4-dihydropyrido[4,3-d]pyrimidin-2(1H)-one] | >10 | >10
COc1cc(OC)c(F)c(N2Cc3cnc(-c4cn(C)nc4C)cc3N(C3CC3)C2=O)c1F [Example 83, 1-cyclopropyl-3-(2,6-difluoro-3,5-dimethoxyphenyl)-7-(1,3-dimethyl-1H-pyrazol-4-yl)-3,4-dihydropyrido[4,3-d]pyrimidin-2(1H)-one] | >5 | >5
CCN1C(=O)N(c2c(F)c(OC)cc(OC)c2F)Cc2cnc(-c3ccc(C4(C#N)CCC4)nc3)cc21 [Example 27, 1-(5-(3-(2,6-difluoro-3,5-dimethoxyphenyl)-1-ethyl-2-oxo-1,2,3,4-tetrahydropyrido[4,3-d]pyrimidin-7-yl)pyridin-2-yl)cyclobutanecarbonitrile] | >10 | >10
CCn1cc(-c2cc3c(cn2)CN(c2c(F)c(OC)cc(OC)c2F)C(=O)C32CC2)c(C)n1 [Example 158, 2′-(2,6-difluoro-3,5-dimethoxyphenyl)-6′-(1-ethyl-3-methyl-1H-pyrazol-4-yl)-1′H-spiro[cyclopropane-1,4′-[2,7]naphthyridin]-3′(2′H)-one] | >5 | >3
COc1cc(OC)c(F)c(N2Cc3cnc(-c4cn(C)nc4C)cc3N(CC3CCOCC3)C2=O)c1F [Example 37, 3-(2,6-difluoro-3,5-dimethoxyphenyl)-7-(1,3-dimethyl-1H-pyrazol-4-yl)-1-((tetrahydro-2H-pyran-4-yl)methyl)-3,4-dihydropyrido[4,3-d]pyrimidin-2(1H)-one] | >1 | >10
